Test results: PubChem BioAssay (NCI)
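Protocol summary: plate cells (96-well), add compound at 5 concentrations, incubate 48 h, interpolate endpoints linearly. At the TGI there is no net growth.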

What was measured:
Assay in all cases: inhibition of tumour cell growth, NCI panel, 48 h
IGROV1 ovarian = tested on: IGROV1 ovarian
M14 melanoma = tested on: M14 melanoma
TK-10 renal = tested on: TK-10 renal
CAKI-1 renal = tested on: CAKI-1 renal
SR leukemia = tested on: SR leukemia
MDA-MB-435 = tested on: MDA-MB-435
SNB-75 CNS = tested on: SNB-75 CNS
SK-MEL-5 melanoma = tested on: SK-MEL-5 melanoma
KM12 colon = tested on: KM12 colon
HCT-15 colon = tested on: HCT-15 colon

SMILES | TGI (IGROV1 ovarian) | TGI (M14 melanoma) | TGI (TK-10 renal) | TGI (CAKI-1 renal) | TGI (SR leukemia) | TGI (MDA-MB-435) | TGI (SNB-75 CNS) | TGI (SK-MEL-5 melanoma) | TGI (KM12 colon) | TGI (HCT-15 colon)
CN1CCN(C2=CC(=O)c3c(O)ccc(O)c3C2=O)CC1 | 3.06 µM | 1.94 µM | 4.22 µM | 3.08 µM | 8.1 µM | 0.332 µM | 2.97 µM | 0.325 µM | 3.59 µM | 
Cc1ccc(N=C2C(=Nc3ccc(C)cc3)N(c3ccc(C)cc3)C(=S)N2C(=O)c2ccccc2)cc1 | > 100 µM | > 100 µM | > 100 µM | > 100 µM | > 100 µM | > 100 µM | 81.2 µM | > 100 µM | > 100 µM | > 100 µM
CCN1CCC(O)(/C=C/c2ccc(OC)cc2)C(C(=O)/C=C/c2ccc(OC)cc2)C1 (centres undefined) | 29.8 µM | 34.1 µM | 26.7 µM |  | 26.4 µM | 19 µM |  |  | 19.9 µM | 
C[C@H]1COC2=C1C(=O)C(=O)c1c2ccc2c1CCCC2(C)C | 29.2 µM | 3.15 µM | 65.9 µM | > 54.9 µM | > 42.7 µM | 2.74 µM | 3.81 µM | 1.43 µM | 37 µM | 18.6 µM
CC1=C(C)C(=O)C(C2=CC(=O)C=CC2=O)=C(C2=CC(=O)C=CC2=O)C1=O | > 100 µM | > 100 µM | > 100 µM | > 56.6 µM |  | > 83.7 µM | > 100 µM | 46.2 µM | > 100 µM | > 100 µM
CSc1scc2c1/C(=N/NC(N)=O)CCC2 |  | > 100 µM | > 100 µM | > 100 µM |  | > 100 µM | > 100 µM | > 100 µM | > 100 µM | > 100 µM
CC(=O)OC1COC(Nc2nc(N)n(C)c(=O)c2N=O)C(OC(C)=O)C1OC(C)=O (centres undefined) | > 10 µM | > 10 µM | > 10 µM | > 10 µM | > 10 µM | > 10 µM | > 10 µM | > 10 µM | > 10 µM | 
O=C(O)C(=O)/C=C(\O)c1ccc(Br)cc1 | > 100 µM | > 100 µM | > 100 µM | > 100 µM |  | > 100 µM | > 100 µM | > 100 µM | > 100 µM | > 100 µM
COc1ccc2c(c1)OC[C@@H]1c3cc(O)c(OCc4ccccc4)cc3O[C@H]21 | > 100 µM | 82.6 µM | 96.4 µM | 84.8 µM |  |  | 65.4 µM | 26.5 µM | > 100 µM | > 100 µM
O=[N+]([O-])C(Cl)=C/C(=C(\Cl)SCc1ccccc1)[N+](=O)[O-] | 91 µM | 53.8 µM | 48.3 µM | 34.2 µM |  | 36.3 µM | > 100 µM | 47.3 µM | > 100 µM | 35.5 µM
C[N+](C)(CCNC(=O)c1cccc2cc3ccccc3nc12)Cc1ccc([N+](=O)[O-])s1 | > 25 µM | > 25 µM | > 25 µM | > 25 µM |  | > 25 µM | > 25 µM | > 25 µM | > 25 µM | > 25 µM
COc1ccc(C[C@H](N)C(=O)N2C[C@@H](CO)C[C@@H](n3ccc(=O)[nH]c3=O)C2)cc1 | > 100 µM | > 100 µM | > 100 µM | > 100 µM | > 100 µM |  |  | > 100 µM | > 100 µM | > 100 µM
